Data: BigSolDB 2.1

O=C(O)c1ccc(-c2ccccc2)cc1
solubility (mole fraction)
Conditions | in benzene | in ethanol | in ethyl acetate | in isobutanol | in isopropanol | in methanol | in methyl acetate | in n-butanol | in n-propanol
293.15 K | 0.00101 | 0.00366 | 0.00654 | 0.00276 | 0.0039 | 0.00255 | 0.0051 | 0.00471 | 0.00426
298.15 K | 0.00123 | 0.00436 | 0.00802 | 0.00349 | 0.00464 | 0.00304 | 0.00593 | 0.00559 | 0.00509
303.15 K | 0.00149 | 0.00512 | 0.00923 | 0.00418 | 0.00563 | 0.0036 | 0.00704 | 0.00658 | 0.00598
308.15 K | 0.00179 | 0.00606 | 0.0108 | 0.0051 | 0.00653 | 0.00424 | 0.00815 | 0.00775 | 0.00685
313.15 K | 0.00214 | 0.0072 | 0.0124 | 0.0063 | 0.00779 | 0.00484 | 0.00942 | 0.00897 | 0.00817
318.15 K | 0.00254 | 0.00831 | 0.0143 | 0.00781 | 0.00952 | 0.00584 | 0.0108 | 0.0105 | 0.00954
323.15 K | 0.003 | 0.00962 | 0.0165 | 0.0093 | 0.0115 | 0.0066 | 0.0126 | 0.012 | 0.0112
328.15 K | 0.00353 | 0.0109 | 0.019 | 0.0111 | 0.0134 | 0.0076 | 0.0145 | 0.0138 | 0.0132
